Data from patent US7572920B2, “Benzimidazole derivative and use as a II receptor antagonist” (Takeda Pharmaceutical Company Limited, priority 2004, dated 2009).
Marks after values point to notes of the source that are not given here.

Columns and labels:
[1] = test system: angiotensin II induced pressor response; assay: Inhibition of angiotensin II induced pressor response in dogs; assay type: in vivo, male beagles; conditions: fasting, AII 100 ng/kg i.v., test compound p.o. at dose equimolar to compound A 1 mg/kg, in 0.5% methylcellulose, mean±SEM
Procedure: Inhibitory Effects of the Compounds of the Present Invention Against Angiotensin II Induced Pressor Response in Dogs
For the experiment, male beagles (body weight 12.0-14.7 kg, KITAYAMA LABES, CO., LTD.) were used. They were anesthetized with sodium pentobarbital (50 mg/kg, i.p.), and a tracheal tube was inserted for management of the airway. The femoral region and the back of the neck were shaved, and a disinfectant (Isodine solution, MEIJI SEIKA KAISHA, LTD.) was applied. The dog was fixed at the dorsal position and the right femoral region was incised. A mirror catheter (5 F, MILLER INDUSTRIES) was inserted and placed in the femoral artery and a polyurethane tube in the femoral vein. The catheter and tube were passed through subcutaneously and fixed at the back region. The incised region was sutured thereafter and penicillin G potassium (MEIJI SEIKA KAISHA, LTD., 40000 units) was intramuscularly administered to prevent infection. Beginning from the next day, penicillin G potassium (40000 units) was administered once a day for 3 days. After 3 days for recovery, the dog was subjected to the experiment.
During the experiment, the dog was placed in a small metabolic cage. For measurement, the mirror catheter inserted in the femoral artery was connected to a transducer unit (MILLER INDUSTRIES), and the systemic blood pressure (average blood pressure) was recorded on a recorder (RECTI-HORIZ 8 K, NEC San-ei Instruments) through a DC amplifier (N4777, NEC San-ei Instruments) and a blood pressure monitor amplifier (N4441, NEC San-ei Instruments). The polyurethane tube inserted in the femoral vein was fixed outside the cage and used for administration of AII (PEPTIDE INSTITUTE, INC.). The experiment was conducted under fasting and AII (100 ng/kg, i.v.) was administered 3 or 4 times before administration of a test compound to confirm stabilization of the vasopressor response. A dose of the test compound corresponding to an equimolar amount of compound A was suspended in 0.5% methylcellulose and orally administered at a volume of 2 mL/kg. After drug administration, AII was administered at each time point of measurement and increase in the blood pressure was measured, based on which the inhibition rate from the value before the administration was calculated.
The results are shown in mean±SEM (Table 2). The significance between the group administered with the compound obtained in Example 5 and the group administered with compound A was analyzed using Student's t-test with Bonferroni correction ([…]).

[2] = test system: angiotensin II induced pressor response; assay: Inhibition of angiotensin II induced pressor response in rats; assay type: in vivo, Male Sprague-Dawley rats; conditions: AII 100 ng/kg i.v., test compound p.o. at dose equimolar to compound A (0.10-0.14 mg/kg), in 0.5% methylcellulose, mean±SEM
Procedure: Inhibitory Effects of Compounds of the Present Invention Against Angiotensin II Induced Pressor Response in Rats
Male Sprague-Dawley rats (9-11 weeks old, CLEA Japan, Inc.) were anesthetized with pentobarbital (50 mg/kg, i.p.) and the femoral artery and vein were isolated and cannulated with polyethylene tubes filled with saline containing heparin (200 U/mL). The catheters were subcutaneously inserted to a site in the back of the neck and fixed. After recovery period, the rat was subjected to the experiment. The arterial catheter was connected to a pressure transducer coupled to a blood pressure monitor amplifier (2238, NEC San-ei Instruments) and the pressure was recorded on a recorder (RECTI-HORIZ 8K, NEC San-ei Instruments). After establishing angiotensin II (AII, 100 ng/kg, i.v.) induced pressor responses, a test compound at a dose corresponding to an equimolar amount of compound A (2-ethoxy-1-{[2′-(5-oxo-4,5-dihydro-1,2,4-oxadiazol-3-yl)biphenyl-4-yl]methyl}-1H-benzimidazole-7-carboxylic acid) was administered. AII was administered 24 hours later and increase in the blood pressure was measured, based on which the inhibition rate from the value before the administration was calculated. All compounds were suspended in 0.5% methylcellulose and orally administered at a volume of 2 mL/kg.
The results are shown in mean±SEM (Table 1). The significance between the group administered with the compound obtained in Example 5 and the other groups was analyzed using Student's t-test ([…]).

Row | Structure (SMILES) | inhibition rate of AII induced increase in blood pressure, 10 hrs after administration [1] | inhibition rate of AII induced increase in blood pressure, 24 hrs after administration [1] | inhibition rate of AII induced increase in blood pressure, 24 hrs after administration [2]
1 | CCOc1nc2cccc(C(=O)OCc3oc(=O)oc3C)c2n1Cc1ccc(-c2ccccc2-c2noc(=O)[nH]2)cc1 [Example 2, (5-methyl-2-oxo-1,3-dioxol-4-yl)methyl 2-ethoxy-1-{[2′-(5-oxo-4,5-dihydro-1,2,4-oxadiazol-3-yl)biphenyl-4-yl]methyl}-1H-benzimidazole-7-carboxylate] | 35.9 ± 4.8 | 28.6 ± 4.1 | –
2 | CCOc1nc2cccc(C(=O)OCc3oc(=O)oc3C)c2n1Cc1ccc(-c2ccccc2-c2noc(=O)[nH]2)cc1.[K] [Example 5, (5-methyl-2-oxo-1,3-dioxol-4-yl)methyl 2-ethoxy-1-{[2′-(5-oxo-4,5-dihydro-1,2,4-oxadiazol-3-yl)biphenyl-4-yl]methyl}-1H-benzimidazole-7-carboxylate potassium salt] | 55.6 ± 3.4** | 40.3 ± 5.1* | 32.7 ± 4.6
3 | CCOc1nc2cccc(C(=O)O)c2n1Cc1ccc(-c2ccccc2-c2noc(=O)[nH]2)cc1 [compound A, 2-ethoxy-1-{[2′-(5-oxo-4,5-dihydro-1,2,4-oxadiazol-3-yl)biphenyl-4-yl]methyl}-1H-benzimidazole-7-carboxylic acid] | 27.0 ± 3.2 | 19.6 ± 3.7 | –
4 | CCOc1nc2cccc(C(=O)OC)c2n1Cc1ccc(-c2ccccc2-c2noc(=O)[nH]2)cc1 [compound B, methyl 2-ethoxy-1-{[2′-(5-oxo-4,5-dihydro-1,2,4-oxadiazol-3-yl)biphenyl-4-yl]methyl}-1H-benzimidazole-7-carboxylate] | – | – | 0.8 ± 4.9**
5 | CCOc1nc2cccc(C(=O)OC(C)OC(=O)OC3CCCCC3)c2n1Cc1ccc(-c2ccccc2-c2noc(=O)[nH]2)cc1 (stereo not shown) [compound C, 1-(cyclohexyloxycarbonyloxy)ethyl 2-ethoxy-1-{[2′-(5-oxo-4,5-dihydro-1,2,4-oxadiazol-3-yl)biphenyl-4-yl]methyl}-1H-benzimidazole-7-carboxylate] | – | – | 9.3 ± 8.6*
6 | CCOc1nc2cccc(C(=O)OCOC(C)=O)c2n1Cc1ccc(-c2ccccc2-c2noc(=O)[nH]2)cc1 [compound D, acetoxymethyl 2-ethoxy-1-{[2′-(5-oxo-4,5-dihydro-1,2,4-oxadiazol-3-yl)biphenyl-4-yl]methyl}-1H-benzimidazole-7-carboxylate] | – | – | 10.9 ± 5.6*
